Here are results for 1 compound from patent US12202840B2, “Compounds for the treatment or alleviation of disorders associated with Tau aggregates” (AC Immune SA, priority 2018, dated 2025).

Common to all, as to assay type: in vivo
The subject of experiment [1] is rTg4510 mice. The experiment in a line: Cortex size (cortical atrophy), study of Example 2. The note with it: once daily by gavage, 7 and 20 mg/kg, statistical significance at the higher dose, FIG. 6A. The procedure: (§1) Double transgenic rTg4510 mice are an aggressive Tauopathy model expressing the full-length human Tau carrying the P301L mutation (Tau4R0N-P301L) under the control of the tetracycline-inducible CaMKII promoter (Ramsden et al., 2005). Wild-type animals and single transgenic mice expressing only the tetracycline-controlled transactivator (tTA) were used as genotype controls. Mice were treated and tested. The study comprised 4 treatment groups (n=15 female mice/group) with the following group distribution (see Table 6). Compound of the invention or vehicle control were administered once daily by gavage for 12 weeks starting at the age of 5.5 weeks. The Morris Water Maze (MWM) behavioral test was performed after 12.5 weeks of treatment over 5 consecutive days. During MWM testing daily dosing was continued. Behavioral testing (MWM) and biochemical quantification of sarkosyl-insoluble Tau were performed on all mice (n=15 mice/group). Measurement of cortical atrophy and histology for Iba1 were performed on 10 mice/group.
After behavioral testing, mice were deeply anesthetized by standard injectable anesthesia and transcardially perfused with cold PBS. Brains were then removed and hemi-sagitally hemisected. […] A systematic random set of sections from seven sagittal levels per animal was used to quantify the cortex size.

Experiment [2] concerns the target T1, sarkosyl-insoluble Tau (Homo sapiens, UniProt P10636, P618L).
T1 construct: expressing the full-length human Tau carrying the P301L mutation (Tau4R0N-P301L); from tissue; host or cells: brain (cortex) of double transgenic rTg4510 mice
The experiment in a line: Sarkosyl-insoluble Tau quantification in cortex, study of Example 2. Conditions: rTg4510 mice cortex, once daily by gavage, 7 and 20 mg/kg; statistical significance at 20 mg/kg; FIG. 5. The procedure: as §1
After behavioral testing, mice were deeply anesthetized by standard injectable anesthesia and transcardially perfused with cold PBS. Brains were then removed and hemi-sagitally hemisected. […] The membranes were finally scanned using LiCor scanner (Odyssey Infrared Imager) and quantified using the LiCor software Image Studio Lite Version 5.2. […]

Experiment [3] relates to Iba1 positive microglia. The experiment can be described thus: Iba1 immunoreactivity (microgliosis), study of Example 2. Conditions: rTg4510 mice, once daily by gavage, 20 mg/kg; FIG. 6B. The procedure: as §1
One section per animal from layer 6 was also used to quantify the Iba1 immunoreactivity. […] Sections were imaged using a digital slide scanner (Pannoramic 250 BF Flash+FL, 3D Histech Ltd.) and quantified using the image visualization software CaseViewer and the image analysis software module HistoQuant (3D Histech Ltd.).

Structures are written as SMILES.

T1 sequence (P10636 1-383 isoform P10636-6 P243L): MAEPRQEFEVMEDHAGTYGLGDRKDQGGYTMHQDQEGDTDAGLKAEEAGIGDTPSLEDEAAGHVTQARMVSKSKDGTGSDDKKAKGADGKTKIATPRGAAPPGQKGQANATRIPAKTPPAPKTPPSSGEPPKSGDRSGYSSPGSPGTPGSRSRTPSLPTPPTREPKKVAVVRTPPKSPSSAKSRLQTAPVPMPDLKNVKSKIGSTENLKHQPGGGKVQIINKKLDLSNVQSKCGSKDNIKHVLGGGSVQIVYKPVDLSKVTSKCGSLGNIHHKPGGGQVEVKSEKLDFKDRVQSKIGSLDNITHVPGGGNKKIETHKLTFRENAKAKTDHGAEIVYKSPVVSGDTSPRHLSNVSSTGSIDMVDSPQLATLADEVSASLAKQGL

Consider `CN(C)[C@@H]1CCc2c(c3ccc(Nc4ccc5sc(N6CCOCC6)nc5c4)nc3n2C)C1` [Example 2], for which, in experiment [1], the cortex size result is given as “dose-dependent increase”. Further, the “sarkosyl insoluble Tau” value in experiment [2] is reported as “dose-dependent decrease”. In experiment [3], the Iba1 immunoreactive area result was “significant decrease”.
